Results from patent publication US20120245154A1, “SUBSTITUTED AMINOTHIAZINE DERIVATIVE” (SHIONOGI & CO., LTD., priority 2009, published 2012).

Key:
hERG channel (IKr) = target: T1, hERG channel (IKr) (Homo sapiens, UniProt Q12809); assay: hERG test; format: cell-based; settings: HEK293 cells expressing hERG channel, pH 7.4, whole cell patch clamp, concentration not given, read-out: % inhibition relative to the tail peak current (IKr)
T1 construct: expressed in transfected cells; host or cells: HEK293
Text: For the purpose of assessing risk of an electrocardiogram QT interval prolongation, effects on delayed rectifier K+ current (IKr), which plays an important role in the ventricular repolarization process, was studied using HEK293 cells expressing human ether-a-go-go related gene (hERG) channel.
After a cell was retained at a membrane potential of −80 mV by whole cell patch clamp method using an automated patch clamp system (PatchXpress 7000A, Axon Instruments Inc.), IKr induced by depolarization pulse stimulation at +50 mV for 2 seconds and, further, repolarization pulse stimulation at −50 mV for 2 seconds was recorded. […] From the recording IKr, an absolute value of the tail peak current was measured based on the current value at the resting membrane potential using an analysis software (DataXpress vet.1, Molecular Devices Corporation). Further, the % inhibition relative to the tail peak current before application of the test substance was calculated, and compared with the vehicle-applied group (0.1% dimethyl sulfoxide solution) to assess influence of the test substance on IKr.

[1] = Brain distribution studies; format: in vivo; settings: brain/plasma, iv; rat, intravenously 0.5 mg/mL/kg, 30 minutes later; read-out: brain Kp value (area ratio brain/plasma)
Method: Compound of the present invention was intravenously administered to a rat at 0.5 mg/mL/kg dosage. […] The brain was enucleated and 20-25% of homogenate thereof was prepared with distilled water. The obtained blood was used as plasma after centrifuging. To the brain sample was added the control plasma at 1:1. To the plasma samples was added the control brains at 1:1. Each sample was measured using LC/MS/MS. The obtained area ratio (a brain/plasma) was used for the brain Kp value.

T1 sequence (Q12809 whole entry): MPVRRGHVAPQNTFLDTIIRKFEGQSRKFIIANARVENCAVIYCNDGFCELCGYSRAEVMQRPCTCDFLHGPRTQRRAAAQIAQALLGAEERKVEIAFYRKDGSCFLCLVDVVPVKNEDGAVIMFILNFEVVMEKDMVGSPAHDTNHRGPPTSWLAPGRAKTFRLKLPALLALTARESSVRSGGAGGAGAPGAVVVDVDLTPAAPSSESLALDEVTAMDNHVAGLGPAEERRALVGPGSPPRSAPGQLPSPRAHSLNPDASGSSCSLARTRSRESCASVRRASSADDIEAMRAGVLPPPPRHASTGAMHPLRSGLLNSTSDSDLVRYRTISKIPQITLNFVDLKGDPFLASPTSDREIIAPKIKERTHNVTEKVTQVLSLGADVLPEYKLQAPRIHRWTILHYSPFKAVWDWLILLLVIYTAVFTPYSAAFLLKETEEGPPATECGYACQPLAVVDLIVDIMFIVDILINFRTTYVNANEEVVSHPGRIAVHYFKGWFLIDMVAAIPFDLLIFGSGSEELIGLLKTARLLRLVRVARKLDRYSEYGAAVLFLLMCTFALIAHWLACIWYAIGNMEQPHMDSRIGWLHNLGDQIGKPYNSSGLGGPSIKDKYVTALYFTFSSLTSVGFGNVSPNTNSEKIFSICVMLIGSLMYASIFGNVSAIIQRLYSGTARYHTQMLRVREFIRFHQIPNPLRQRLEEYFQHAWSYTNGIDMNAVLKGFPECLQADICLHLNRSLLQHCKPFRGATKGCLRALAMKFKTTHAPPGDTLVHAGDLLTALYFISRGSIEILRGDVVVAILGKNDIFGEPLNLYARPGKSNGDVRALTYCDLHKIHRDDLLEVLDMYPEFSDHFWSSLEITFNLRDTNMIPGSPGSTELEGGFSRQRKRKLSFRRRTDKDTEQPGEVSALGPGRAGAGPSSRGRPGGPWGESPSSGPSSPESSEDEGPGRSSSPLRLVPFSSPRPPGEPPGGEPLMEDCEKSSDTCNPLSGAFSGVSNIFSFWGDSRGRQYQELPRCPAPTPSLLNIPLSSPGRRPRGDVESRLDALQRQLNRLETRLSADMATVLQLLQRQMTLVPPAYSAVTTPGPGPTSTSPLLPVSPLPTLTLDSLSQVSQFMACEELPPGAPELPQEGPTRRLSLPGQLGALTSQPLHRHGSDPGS

`Cc1cnc(C(=O)Nc2ccc(F)c([C@]3(C)C=C(C(F)F)SC(N)=N3)c2)cn1` [Compound I-14] showed an inhibition at 10 min (hERG channel (IKr)) of 3.8%.
In the case of `CC(C)C1=C[C@@](C)(c2cc(NC(=O)c3ccc(C#N)cn3)ccc2F)N=C(N)S1` [Compound I-54], the Kp at 0.5 h [1] is reported as 2.5.
